Active and inactive are the calls of the source.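 The calls were made as follows: active = compounds that block at least 90% of GSTO1 probe labeling in cell lysate; inactive = the rest.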
Target: Glutathione S-transferase omega-1 (Homo sapiens) (UniProt P78417)
Assay: native GSTO1 blockade in soluble lysate – cell lysate, MDA-MB-435 proteome, gel ABPP, SE-Rh, percent inhibition, late-stage follow-up (AID 463098)
Conditions: gel ABPP SE-Rh fluorescence, at 1 µM, stronger effect = higher value

Sequence of Glutathione S-transferase omega-1 (Homo sapiens) (P78417 whole entry, looked up): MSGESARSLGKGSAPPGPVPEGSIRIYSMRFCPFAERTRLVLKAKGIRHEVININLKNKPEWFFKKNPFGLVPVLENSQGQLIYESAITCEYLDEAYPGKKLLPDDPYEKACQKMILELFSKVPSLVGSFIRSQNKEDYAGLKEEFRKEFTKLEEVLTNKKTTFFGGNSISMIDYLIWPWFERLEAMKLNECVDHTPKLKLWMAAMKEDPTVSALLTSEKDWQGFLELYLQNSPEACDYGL

Row | Structure (SMILES) | inhibition
1 | Cc1nn(-c2ccc(Cl)cc2)c2[nH]c(CCl)cc(=O)c12 | 26% (inactive)
2 | O=C(CCl)N(c1ccccc1)C1CCCCC1 | 24% (inactive)
3 | O=C(NC1CCCCC1)C(c1cccnc1)N(C(=O)CCl)c1cccc(Cl)c1 (configuration not stated) | 100%
4 | O=C(CCl)N1c2ccccc2OCC1c1ccccc1 (configuration not stated) | 37% (inactive)
5 | COc1cc2c(cc1OC)C(c1ccccc1)N(C(=O)CCl)CC2 (configuration not stated) | 81% (inactive)
6 | Cc1ccc(N(C(=O)CCl)C(C(=O)NC2CCCCC2)c2cccnc2)cc1C (configuration not stated) | 76% (inactive)
7 | CCC(C)N(CC(=O)Nc1cccc(C)c1C)C(=O)CCl (configuration not stated) | 26% (inactive)
8 | COc1cccc(-c2nc(CCl)cs2)c1 | 50% (inactive)
9 | O=c1cc(CCl)nc2sc3ccccc3n12 | 83% (inactive)
10 | O=C(NCCc1ccccc1)C(c1cccs1)N(C(=O)CCl)c1ccc(Cl)cc1 (configuration not stated) | 88% (inactive)
11 | O=C(NC1CCCCC1)C(c1cccnc1)N(C(=O)CCl)c1ccc(F)cc1 (configuration not stated) | 100%
12 | O=C(CCl)N(C/C=C/c1ccccc1)c1ccc2c(c1)OCCO2 | 58% (inactive)
13 | COc1cccc(N(C(=O)CCl)C(C(=O)NCCc2ccccc2)c2cccs2)c1 (configuration not stated) | 75% (inactive)
14 | O=C(CCl)N1CCN(S(=O)(=O)c2ccc3ccccc3c2)CC1 | 100%
15 | CCCCCCCN(C(=O)CCl)c1ccccc1C | 51% (inactive)
16 | CC(=O)n1cc(N(C(=O)CCl)c2ccccc2)c2ccccc21 | 0% (inactive)
17 | CCCCCn1c(=O)c2ccccc2n2c(CCl)nnc12 | 73% (inactive)
18 | O=C(CCl)N(c1ccc(Cl)cc1)c1c[nH]c2ccccc12 | 23% (inactive)
19 | O=c1cc(CCl)nc(Cc2c(Cl)cccc2Cl)[nH]1 | 59% (inactive)
20 | O=C(CCl)N1c2ccccc2SCC1c1ccccc1 (configuration not stated) | 65% (inactive)
21 | Cc1ccc(N(Cc2cc(=O)[nH]c3ccccc23)C(=O)CCl)cc1 | 41% (inactive)
22 | CC1CCCN(C(=O)CCl)C1 (configuration not stated) | 34% (inactive)
23 | COC(=O)CC1C(=O)NC2CCCCC2N1C(=O)CCl (configuration not stated) | 0% (inactive)
24 | CCCCCCCN(C(=O)CCl)c1cccc(C)c1 | 58% (inactive)

Row | Structure (SMILES) | inhibition
25 | CCC1(CC)Cc2ccccc2-c2nc(CCl)[nH]c(=O)c21 | 84% (inactive)
26 | O=c1cc(CCl)nc2scc(-c3ccccc3)n12 | 22% (inactive)
27 | O=c1[nH]c(CCl)nc2cc(-c3ccc(F)cc3)sc12 | 100%
28 | CC1CCN(C(=O)CCl)CC1 | 53% (inactive)
29 | CC(=O)n1cc(N(C(=O)CCl)c2ccc(C)cc2)c2ccccc21 | 70% (inactive)
30 | O=C(O)C1Cc2ccccc2CN1C(=O)CCl (configuration not stated) | 84% (inactive)
31 | COc1ccc(N(Cc2cc(=O)[nH]c3ccccc23)C(=O)CCl)cc1 | 38% (inactive)
32 | COc1ccc(N(C(=O)CCl)C(C(=O)NC2CCCCC2)c2cccnc2)cc1 (configuration not stated) | 97%
33 | Cc1ccc(NC(=O)Cc2nc(CCl)cs2)cc1 | 55% (inactive)
34 | O=C(CCl)N(Cc1cc(=O)[nH]c2ccccc12)c1ccccc1 | 38% (inactive)
35 | CCOC(=O)c1sc(N(Cc2ccccc2)C(=O)CCl)nc1C | 82% (inactive)
36 | CCOC(=O)N1CCN(C(=O)CCl)CC1 | 22% (inactive)
37 | CN(Cc1ccc(Cl)s1)C(=O)CCl | 83% (inactive)
38 | COc1ccc(CN(CCC(c2ccccc2)c2ccc(OC(C)C)cc2)C(=O)CCl)cc1OC (configuration not stated) | 81% (inactive)
39 | C=CCOc1ccccc1CN(C(=O)CCl)c1ccc2c(c1)OCO2 | 35% (inactive)
40 | COc1ccc(C(C(=O)NC2CCCCC2)N(C(=O)CCl)c2ccc(Cl)cc2)cc1 (configuration not stated) | 100%
41 | COc1ccccc1NS(=O)(=O)c1ccc2nc(CCl)[nH]c2c1 | 88% (inactive)
42 | COc1ccc(C(C(=O)NC2CCCCC2)N(C(=O)CCl)c2cccc(Cl)c2)cc1 (configuration not stated) | 100%
43 | Cc1ccc2c(c1)c1c3n2CCN(C(=O)CCl)C3CCC1 (configuration not stated) | 96%
44 | COC(=O)C1Cc2ccccc2CN1C(=O)CCl (configuration not stated) | 40% (inactive)
45 | CCOc1ccc(CN(C)C(=O)CCl)cc1 | 47% (inactive)
46 | O=S(=O)(c1ccc(Cl)cc1)N1CCC2(CC1)CO2 | 94%
47 | COc1ccc(N(C(=O)CCl)C(C(=O)NCCc2ccccc2)c2cccs2)cc1 (configuration not stated) | 86% (inactive)
48 | CC1CCc2c(sc3nc(C(C)(C)C)nc(N4CCN(C(=O)CCl)CC4)c23)C1 (configuration not stated) | 48% (inactive)

Row | Structure (SMILES) | inhibition
49 | CCCN(C(=O)CCl)C1=CCCCC1 | 0% (inactive)
50 | COc1ccc(N(C(=O)CCl)C(C(=O)NCCc2ccccc2)c2cccs2)cc1Cl (configuration not stated) | 100%
51 | Cc1ccc2c(c1)c(=O)c1c3n2CCN(C(=O)CCl)C3CC1 (configuration not stated) | 57% (inactive)
52 | COc1cc2c(cc1OC)C(c1cc(Br)ccc1F)N(C(=O)CCl)CC2 (configuration not stated) | 80% (inactive)
53 | Cc1cccc(N(Cc2cc(=O)[nH]c3ccccc23)C(=O)CCl)c1 | 82% (inactive)
54 | O=C(CCl)N(Cc1ccccc1)c1ccccc1 | 56% (inactive)
55 | CC(C)N(CC(=O)Nc1ccc(Cl)cc1C(F)(F)F)C(=O)CCl | 7% (inactive)
56 | Cc1nn(-c2ccccc2)c(Cl)c1CN(C(=O)CCl)c1ccc(Cl)cc1 | 93%
57 | O=Cc1[nH]c2ccccc2c1N(C(=O)CCl)c1ccc([N+](=O)[O-])cc1 | 75% (inactive)
58 | CCc1ccc(-c2nc(CCl)cs2)cc1 | 40% (inactive)
59 | Cc1cccc(CN2CCN(C(=O)CCl)CC2)c1 | 90%
60 | O=C(CCl)N(CCc1ccccc1)CCc1ccccc1 | 57% (inactive)
61 | N#CCCN(C(=O)CCl)c1cccc(Cl)c1 | 69% (inactive)
62 | Cc1nn(-c2ccccc2)c(Cl)c1CN(C(=O)CCl)c1cccc2ccccc12 | 34% (inactive)
63 | CN(Cc1ccc(Cl)cc1)C(=O)CCl | 18% (inactive)
64 | CC(C)CCn1c(=O)c2ccccc2n2c(CCl)nnc12 | 87% (inactive)
65 | CN(C)C(=O)CN1CCN(C(=O)CCl)CC1 | 3% (inactive)
66 | CCCCCCN(C(=O)CCl)c1ccccc1 | 43% (inactive)
67 | COCCN(C(=O)CCl)C(C(=O)NC1CCCCC1)c1ccccc1C (configuration not stated) | 25% (inactive)
68 | COc1ccc(C(CCN(Cc2ccc(OC)c(OC)c2)C(=O)CCl)c2ccccc2)cc1 (configuration not stated) | 100%
69 | COc1ccc(C(C(=O)NC2CCCCC2)N(C(=O)CCl)c2ccc(C)cc2)cc1 (configuration not stated) | 82% (inactive)
70 | CC(=O)n1cc(N(C(=O)CCl)c2ccc(Cl)cc2)c2ccccc21 | 38% (inactive)
71 | O=C(NC1CCCC1)C(c1ccc(F)cc1)N(Cc1ccccc1Cl)C(=O)CCl (configuration not stated) | 61% (inactive)
72 | COC(CN(C(=O)CCl)C(C(=O)NC1CCCCC1)c1ccccc1C)OC (configuration not stated) | 0% (inactive)
